# US20250017964A1, “ENGINEERING OR INDUCING PDGF AND/OR PDGFR SIGNALING TO ENHANCE NK CELL THERAPY” (City of Hope, priority 2021, published 2025)
# *1 amine or outer side, *2 acyl side, *3 side chain or, on linkers, in order; H or OH if unused. Where a SMILES comes first, the peptide text is derived from it. Bridges are numbered along the chain shown (N, C = ends). Roman numbers before positions name the chains, in order. [ ]: non-standard residue; d: D form. Actinocin(9to1) = Cc1c2oc3c(C)ccc(C(=O)[*:1])c3nc-2c(C(=O)[*:2])c(N)c1=O; NMeV = CN[C@H](C(=O)O)C(C)C; Sar = CNCC(=O)O
# Key:
# [1] = test system: IL-15-induced PDGFRβ expression; test: Inhibition assay: IL-15-induced PDGFRβ expression after inhibitor pretreatment, flow cytometry; format: cell-based, human; settings: washed, IL-15 10 ng/ml 24 h; for inhibition of PDGFRβ expression: DMSO control
# Procedure: FIGS. 2A-2I. […] (A-B) Primary NK cells were treated with IL-15 (10 ng/ml) for the indicated times. mRNA levels of PDGFRB at different time points (A) (n=3) or at 1 h (B) (n=10) were examined by qPCR. (C-D) Primary NK cells were pretreated with actinomycin D (ActD, 5., g/ml) (C) or cycloheximide (CHX, 20 μg/ml) (D) for 1 h, washed twice with RPMI-1640, and then treated with IL-15 (10 ng/ml) for 24 h. DMSO was used as a control. Expression levels of PDGFRβ were examined by flow cytometry (n=5). […] (E) Primary NK cells were pretreated with wortmannin (1 μM), afuresertib (10 μM), TPCA-1 (1 μM), rapamycin (10 μM), torin1 (10 μM), decernotinib (10 μM), C118-9 (10 μM), STAT5-IN-1 (10 μM), AZD6244 (10 μM), or CI-1040 (10 μM) for 1 h, washed twice with RPMI 1640, and then treated with IL-15 (10 ng/ml) for 24 h. DMSO was used as control. Data shown are % of inhibition (n=5). The mean value of the inhibitory rate is shown. […] (G-I) Binding of p65 to the PDGFRB promoter in IL-15-treated NK cells (G) or resting NK cells (H) as determined by ChIP-qPCR or PCR (I) (n=3). Data represent three independent experiments. Data shown are means SD. NS, not significant. *P<0.05, **P<0.01, ***P<0.001, and ****P<0.0001.
# FIGS. 8A-8E. […] (A) Scheme for the three IL-15 signaling pathways and their inhibitors. (B) Representative dot plots of PDGFRβ expression in NK cells treated with specific inhibitors. (C) Binding sites for p65 in the promoter regions of PDGFRB and PDGF-D genes (predicted from http://jaspar.genereg.net). […] The cells were collected for an immunoblot using anti-phosphor (p)-p65, anti-p65, and anti-actin antibodies. The ratios of p-p65 to actin were calculated using ImageJ (n=3). Data shown represent the mean±SD. NS, not significant, **P<0.01, ****P<0.0001.
# (§1) NK cells were cultured in RPMI 1640 with 10% heat-inactivated FBS (Gibco) at 37° C. in a 5% CO2 humidified incubator. For NK cell transduction, PDGFRB cDNA ORF clone (Cat: HG10514-G) was purchased from Sino Biological and cloned into pCDH-CMV-MCS-EF1-copGFP lentivirus vector (System Biosciences). To produce lentivirus, we transfected the lentiviral transfer vector DNA, together with psPAX2 packaging (Addgene) and pMD2.G envelope plasmid DNA (Addgene), into HEK293T cells; using a polyethyenimine (PEI) transfection protocol (Polysciences). Concentrated lentivirus was added to primary NK cells cultured in RPMI 1640 medium supplemented with 10% FCS and 10 jig/mL polybrene with 2,000×g centrifugation for 2 h. Cells were cultured for an additional 48 h. […] The cells were then collected for flow cytometry analysis. For the inhibition assay, NK cells were pretreated with the indicated inhibitors for 1 h, washed twice with RPMI 1640. and then treated with IL-15 for 24 h.
# Cells were stained with the indicated cell-surface markers and/or fixed/permeabilized using a Fixation/Permeabilization Kit (eBioscience). For intracellular staining of IFN-γ and PDGF-D, 5 μg/ml Brefeldin A (BioLegend) was added for 4 h before cell harvest. Intracellular staining of Ki67 was performed by fixing and permeabilizing with the Foxp3/Transcription Factor Staining Kit (eBioscience). For CD107a staining, CD107a antibody was added into the culture for 4 h in the presence of Brefeldin A. Annexin V staining was performed using an FITC Annexin V Apoptosis Detection Kit according to the manufacturer's protocol (BD Biosciences). Flow cytometry analysis was performed on BD LSRFortessa X-20 (BD Biosciences). Data were analyzed using NovoExpress software (Agilent Technologies).
# [2] = test system: PDGFRβ expression in human NK cells; test: Cytokine-induced PDGFRβ expression in purified human NK cells, flow cytometry; format: cell-based; settings: cytokine 10 ng/ml, 24 h; IL-15 effect dose- and time-dependent
# Source text: Data shown are the percentages of PDGFRβ^+ NK cells among total NK cells (n=5). […] Bar=20 μm. […] Data represent three independent experiments. Data shown are means SD.
# FIGS. 7A-7F. […] Data shown are representative histograms and mean fluorescence intensity (MFI) of PDGFRα. […] Expression levels of PDGFRβ were examined by flow cytometry (n=6). […] Data shown are the percentages of PDGFRβ^+ NK cells among total NK cells (n=5). […] Data shown are representative histograms with MFI of PDGFRβ expression. (F) Expression levels of PDGFRβ on NK cells from IL-15 transgenic (Tg) mice were determined by flow cytometry. Data shown are representative histograms. Data represent three independent experiments.
# as §1
# Cells were stained with the indicated cell-surface markers and/or fixed/permeabilized using a Fixation/Permeabilization Kit (eBioscience). For intracellular staining of IFN-γ and PDGF-D, 5 μg/ml Brefeldin A (BioLegend) was added for 4 h before cell harvest. Intracellular staining of Ki67 was performed by fixing and permeabilizing with the Foxp3/Transcription Factor Staining Kit (eBioscience).
# [3] = inhibitor 10 μM pretreatment 1 h
# [4] = inhibitor 1 μM pretreatment 1 h
molecule,measurement,setting,value
Cn1cnc2c(F)c(Nc3ccc(Br)cc3Cl)c(C(=O)NOCCO)cc21 [AZD6244],effect on IL-15-induced PDGFRβ expression,[1]; [3],either little inhibition or even promoted
O=C(NOCC1CC1)c1ccc(F)c(F)c1Nc1ccc(I)cc1Cl [CI-1040],effect on IL-15-induced PDGFRβ expression,[1]; [3],either little inhibition or even promoted
O=C(N/N=C/c1coc2ccccc2c1=O)c1cccnc1 [STAT5-IN-1],effect on IL-15-induced PDGFRβ expression,[1]; [3],either little inhibition or even promoted
NC(=O)Nc1sc(-c2ccc(F)cc2)cc1C(N)=O [TPCA-1],effect on IL-15-stimulated PDGFRβ expression,[1]; [4],completely prevented
"Cc1c2oc3c(C)ccc(C(=O)N[C@@H]4C(=O)N[C@H](C(C)C)C(=O)N5CCC[C@H]5C(=O)N(C)CC(=O)N(C)[C@@H](C(C)C)C(=O)O[C@@H]4C)c3nc-2c(C(=O)N[C@@H]2C(=O)N[C@H](C(C)C)C(=O)N3CCC[C@H]3C(=O)N(C)CC(=O)N(C)[C@@H](C(C)C)C(=O)O[C@@H]2C)c(N)c1=O [actinomycin D] (I: T[dV]P[Sar][NMeV] / II: T[dV]P[Sar][NMeV]; ester I:1-I:C, II:1-II:C; linker I:N-II:N via Actinocin(9to1))",effect on IL-15-induced PDGFRβ expression,[1]; ActD pretreatment 1 h,no longer induced PDGFRβ expression
Cn1ncc(Cl)c1-c1cc(C(=O)N[C@H](CN)Cc2cccc(F)c2)sc1Cl [afuresertib],inhibition of PDGFRβ expression,[1]; [3],~70%
C[C@@H]1C[C@@H]([C@H](O)CC2CC(=O)NC(=O)C2)C(=O)[C@@H](C)C1 [cycloheximide],effect on IL-15-induced PDGFRβ expression,"[1]; CHX, 20 μg/ml pretreatment 1 h",completely inhibited
"CC[C@@](C)(Nc1ccnc(-c2c[nH]c3ncccc23)n1)C(=O)NCC(F)(F)F [decemotinib, decernotinib]",effect on IL-15-induced PDGFRβ expression,[1]; [3],approximately one third
CCC(=O)N1CCN(c2ccc(-n3c(=O)ccc4cnc5ccc(-c6cnc7ccccc7c6)cc5c43)cc2C(F)(F)F)CC1 [torin1],effect on IL-15-induced PDGFRβ expression,[1]; [3],dramatically and significantly blocked
COC[C@H]1OC(=O)c2coc3c2[C@@]1(C)C1=C(C3=O)[C@@H]2CCC(=O)[C@@]2(C)C[C@H]1OC(C)=O [wortmannin],inhibition of PDGFRβ expression,[1]; [4],~70%
IL-18: recombinant human IL-18 (B001-5),PDGFRβ expression,[2],ineffective
